Experimental data published in patent US12624050B2, “Three fused ring derivative-containing salt or crystal form and pharmaceutical composition thereof” (Shanghai Hansoh Biomedical Co., Ltd., priority 2019, dated 2026).

Experiment: Screening of salts of the compound with counter ion acids
Type: physicochemical
Details: for Results (salt screening): acetone 0.2 mL, solid-liquid reaction, room temperature; for Results (salt screening) / Post-treatment (salt screening): base:acid=1:1.2; for Experimental results (salt screening): natural evaporation at room temperature; for Post-treatment (salt screening): suspended in 0.2 mL of methanol at 50° C.
Procedure: 300 mg of free base was weighed, 15 mL of THE was added, and the mixture was heated to 50° C. to dissolve completely. The solution of the free base in THE was divided into […], and a certain amount of acid was added to each part (molar reaction ratio of base:acid=1:1.2), detailed as follows:
20 mg of free base was weighed, 0.2 mL of acetone was added, and the mixture was stirred and suspended at room temperature. Acid (molar reaction ratio of base:acid=1:1.2) was added to the suspension system for reaction, detailed as follows: […]
20 mg of free base was weighed, 0.2 mL of methanol was added, and the mixture was stirred and suspended at 50° C. Acid (molar reaction ratio of base:acid=1:1.2) was added to the suspension system for reaction, detailed as follows:
THF was used as solvent in No. 1 to 10, and the free base was dissolved in THE to form a clear solution and then acid was added. Ethanol was used as solvent in No. 11 to 14, the free base was suspended in ethanol, and a clear solution formed after adding an acid. The clear solution formed in No. 1-14 was placed at room temperature without sealing the container to evaporate the solvent.

[1] = acid: 1M oxalic acid in ethanol
[2] = acid: 1M phosphoric acid in ethanol

C[C@H](Nc1ccc2c(c1)OCCn1cc(N3C(=O)SC[C@H]3C(F)F)nc1-2)C(N)=O [Example 22, (S)-2-((2-((R)-4-(difluoromethyl)-2-oxothiazolidin-3-yl)-5,6-dihydrobenzo[f]imidazo[1,2-d][1,4]oxazepin-9-yl)amino)propionamide]
Results (salt screening) (acid: 1M maleic acid in ethanol): No reaction, free base remained | Results (salt screening) (acid: 1M methanesulfonic acid in ethanol): Mesylate was obtained | Results (salt screening) [1]: No reaction, free base remained | Results (salt screening) [2]: No reaction, free base remained | Experimental results (salt screening) (THF as solvent, acid: Adipic acid): Oil formed | Experimental results (salt screening) (THF as solvent, acid: Citric acid): Oil formed | Experimental results (salt screening) (THF as solvent, acid: Fumaric acid): Oil formed | Experimental results (salt screening) (THF as solvent, acid: Glycolic acid): Oil formed | Experimental results (salt screening) (THF as solvent, acid: Maleic acid): Oil formed | Experimental results (salt screening) (THF as solvent, acid: Malic acid): Oil formed | Experimental results (salt screening) (THF as solvent, acid: Oxalic acid): Oil formed | Experimental results (salt screening) (THF as solvent, acid: Phosphoric acid): Oil formed | Experimental results (salt screening) (THF as solvent, acid: Succinic acid): Oil formed | Experimental results (salt screening) (THF as solvent, acid: Tartaric acid): Oil formed | Experimental results (salt screening) (ethanol as solvent, acid: Benzenesulfonic acid): Amorphous | Experimental results (salt screening) (ethanol as solvent, acid: Hydrochloric acid): Amorphous | Experimental results (salt screening) (ethanol as solvent, acid: Isethionic acid): Amorphous | Experimental results (salt screening) (ethanol as solvent, acid: p-Toluenesulfonic acid): Amorphous | Post-treatment (salt screening) (acid: 1M maleic acid in methanol): No reaction, free base remained | Post-treatment (salt screening) [1]: No reaction, free base remained | Post-treatment (salt screening) [2]: No reaction, free base remained
